Test results reported in article PMC6893898, “Receptor Interaction Profiles of 4-Alkoxy-Substituted 2,5-Dimethoxyphenethylamines and Related Amphetamines” (Frontiers in Pharmacology, 2019).

Molecular target: T1, α1A adrenergic receptor (Homo sapiens, UniProt P35348)
T1 construct: expressed in transfected cells; host or cells: Chinese hamster ovary cell line (membrane preparation)
T1 sequence (P35348 1-466): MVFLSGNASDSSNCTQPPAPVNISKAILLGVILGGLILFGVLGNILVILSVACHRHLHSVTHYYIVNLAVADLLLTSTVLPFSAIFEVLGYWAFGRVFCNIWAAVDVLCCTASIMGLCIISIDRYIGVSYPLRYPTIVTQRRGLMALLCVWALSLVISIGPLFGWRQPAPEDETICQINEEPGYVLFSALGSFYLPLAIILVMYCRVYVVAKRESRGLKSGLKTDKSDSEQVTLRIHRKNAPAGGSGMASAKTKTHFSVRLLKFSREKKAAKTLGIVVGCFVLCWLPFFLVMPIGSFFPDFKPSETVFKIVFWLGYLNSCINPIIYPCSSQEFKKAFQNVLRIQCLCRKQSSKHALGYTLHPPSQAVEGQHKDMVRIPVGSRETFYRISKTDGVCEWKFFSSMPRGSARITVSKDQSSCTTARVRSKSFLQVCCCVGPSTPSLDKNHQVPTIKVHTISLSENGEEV
Experiment: Radioligand binding, α1A adrenergic receptor ([3H]prazosin)
Settings: not given

SMILES	Ki
C=CCOc1cc(OC)c(CCN)cc1OC [2C-O-16, 4-allyloxy-2,5-dimethoxyphenethylamine]	> 6.5 µM
C=C(C)COc1cc(OC)c(CCN)cc1OC [2C-O-3, 2,5-dimethoxy-4-methallyloxyphenethylamine]	> 6.5 µM
CCOc1cc(OC)c(CCN)cc1OC [2C-O-2, 2,5-dimethoxy-4-ethoxyphenethylamine]	> 6.5 µM
COc1cc(OCCF)c(OC)cc1CC(C)N (stereo not drawn) [MFEM, 2,5-dimethoxy-4-(2-fluoroethoxy)amphetamine]	> 6.5 µM
C=CCOc1cc(OC)c(CC(C)N)cc1OC (stereo not drawn) [MALM, 4-allyloxy-2,5-dimethoxyamphetamine]	> 6.5 µM
COc1cc(OCC(F)F)c(OC)cc1CCN [2C-O-21.5, 4-(2,2-difluoroethoxy)-2,5-dimethoxyphenethylamine]	> 6.5 µM
COc1cc(OCCF)c(OC)cc1CCN [2C-O-21, 2,5-dimethoxy-4-(2-fluoroethoxy)phenethylamine]	> 6.5 µM

Molecular target: hNET (Homo sapiens, UniProt P23975)
Experiment: Radioligand binding, NET (N-methyl-[3H]nisoxetine)
Parameters: expressed in transfected cells; host or cells: HEK 293 (membrane preparation)
Settings: not given

hNET, sequence (P23975 whole entry): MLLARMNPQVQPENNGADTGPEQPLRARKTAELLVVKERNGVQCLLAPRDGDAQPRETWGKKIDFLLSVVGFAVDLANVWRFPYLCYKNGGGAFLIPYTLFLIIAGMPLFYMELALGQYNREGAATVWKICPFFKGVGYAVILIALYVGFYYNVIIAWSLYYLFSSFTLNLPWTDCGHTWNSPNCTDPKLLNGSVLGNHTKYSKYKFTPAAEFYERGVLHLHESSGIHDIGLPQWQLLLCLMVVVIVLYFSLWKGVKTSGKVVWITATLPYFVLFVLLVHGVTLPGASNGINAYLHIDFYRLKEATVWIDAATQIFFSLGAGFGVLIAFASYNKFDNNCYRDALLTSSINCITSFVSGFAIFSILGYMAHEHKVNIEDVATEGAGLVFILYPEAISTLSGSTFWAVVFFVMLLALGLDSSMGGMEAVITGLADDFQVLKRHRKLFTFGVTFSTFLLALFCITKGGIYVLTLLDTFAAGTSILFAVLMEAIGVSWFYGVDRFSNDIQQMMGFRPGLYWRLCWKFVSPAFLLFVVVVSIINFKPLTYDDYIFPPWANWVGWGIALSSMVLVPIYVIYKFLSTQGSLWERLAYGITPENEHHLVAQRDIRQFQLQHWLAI

SMILES	Ki
C=CCOc1cc(OC)c(CCN)cc1OC [2C-O-16, 4-allyloxy-2,5-dimethoxyphenethylamine]	> 9.7 µM
C=C(C)COc1cc(OC)c(CCN)cc1OC [2C-O-3, 2,5-dimethoxy-4-methallyloxyphenethylamine]	> 9.7 µM
CCOc1cc(OC)c(CCN)cc1OC [2C-O-2, 2,5-dimethoxy-4-ethoxyphenethylamine]	> 9.7 µM
COc1cc(OCCF)c(OC)cc1CC(C)N (stereo not drawn) [MFEM, 2,5-dimethoxy-4-(2-fluoroethoxy)amphetamine]	> 9.7 µM
C=CCOc1cc(OC)c(CC(C)N)cc1OC (stereo not drawn) [MALM, 4-allyloxy-2,5-dimethoxyamphetamine]	> 9.7 µM
COc1cc(OCC(F)F)c(OC)cc1CCN [2C-O-21.5, 4-(2,2-difluoroethoxy)-2,5-dimethoxyphenethylamine]	> 9.7 µM
COc1cc(OCCF)c(OC)cc1CCN [2C-O-21, 2,5-dimethoxy-4-(2-fluoroethoxy)phenethylamine]	> 9.7 µM

Molecular target: T2, mouse TAAR1 (Mus musculus, UniProt Q923Y8)
T2 construct: expressed in transfected cells; host or cells: HEK 293 (membrane preparation)
Experiment: Radioligand binding, mouse TAAR1 ([3H]RO5166017)
Settings: not given

T2 sequence (Q923Y8 whole entry): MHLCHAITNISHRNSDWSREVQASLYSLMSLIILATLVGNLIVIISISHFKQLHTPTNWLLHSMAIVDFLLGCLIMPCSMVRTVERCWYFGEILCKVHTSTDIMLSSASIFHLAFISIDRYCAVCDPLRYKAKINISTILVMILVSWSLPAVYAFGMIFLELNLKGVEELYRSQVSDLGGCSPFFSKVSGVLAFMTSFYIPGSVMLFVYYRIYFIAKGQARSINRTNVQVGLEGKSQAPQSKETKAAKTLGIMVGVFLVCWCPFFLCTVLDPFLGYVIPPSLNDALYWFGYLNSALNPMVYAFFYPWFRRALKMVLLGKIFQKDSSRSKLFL

SMILES	Ki
C=CCOc1cc(OC)c(CCN)cc1OC [2C-O-16, 4-allyloxy-2,5-dimethoxyphenethylamine]	2.5 ± 1 µM
C=C(C)COc1cc(OC)c(CCN)cc1OC [2C-O-3, 2,5-dimethoxy-4-methallyloxyphenethylamine]	1.1 ± 0.4 µM
CCOc1cc(OC)c(CCN)cc1OC [2C-O-2, 2,5-dimethoxy-4-ethoxyphenethylamine]	4 ± 1.1 µM
COc1cc(OCCF)c(OC)cc1CC(C)N (stereo not drawn) [MFEM, 2,5-dimethoxy-4-(2-fluoroethoxy)amphetamine]	> 4.9 µM
C=CCOc1cc(OC)c(CC(C)N)cc1OC (stereo not drawn) [MALM, 4-allyloxy-2,5-dimethoxyamphetamine]	2 ± 0.4 µM
COc1cc(OCC(F)F)c(OC)cc1CCN [2C-O-21.5, 4-(2,2-difluoroethoxy)-2,5-dimethoxyphenethylamine]	> 4.8 µM
COc1cc(OCCF)c(OC)cc1CCN [2C-O-21, 2,5-dimethoxy-4-(2-fluoroethoxy)phenethylamine]	> 4.9 µM

Molecular target: T3, α2A adrenergic receptor (Homo sapiens, UniProt P08913)
T3 construct: expressed in transfected cells; host or cells: Chinese hamster lung cell line (membrane preparation)
T3 sequence (P08913 1-465): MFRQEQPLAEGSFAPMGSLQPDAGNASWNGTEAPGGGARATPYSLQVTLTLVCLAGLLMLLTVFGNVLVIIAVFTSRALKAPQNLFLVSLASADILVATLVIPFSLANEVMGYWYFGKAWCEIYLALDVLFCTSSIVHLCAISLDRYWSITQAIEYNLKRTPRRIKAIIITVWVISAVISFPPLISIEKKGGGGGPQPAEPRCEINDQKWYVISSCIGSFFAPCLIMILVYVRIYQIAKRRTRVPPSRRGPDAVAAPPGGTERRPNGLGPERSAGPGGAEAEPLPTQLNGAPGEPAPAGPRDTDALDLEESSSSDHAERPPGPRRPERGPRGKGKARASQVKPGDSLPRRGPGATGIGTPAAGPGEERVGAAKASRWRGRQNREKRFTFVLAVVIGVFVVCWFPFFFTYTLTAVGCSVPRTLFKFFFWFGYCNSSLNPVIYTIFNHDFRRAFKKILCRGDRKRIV
Experiment: Radioligand binding, α2A adrenergic receptor ([3H]rauwolscine)
Settings: not given

SMILES	Ki
C=CCOc1cc(OC)c(CCN)cc1OC [2C-O-16, 4-allyloxy-2,5-dimethoxyphenethylamine]	0.62 ± 0.02 µM
C=C(C)COc1cc(OC)c(CCN)cc1OC [2C-O-3, 2,5-dimethoxy-4-methallyloxyphenethylamine]	0.18 ± 0.01 µM
CCOc1cc(OC)c(CCN)cc1OC [2C-O-2, 2,5-dimethoxy-4-ethoxyphenethylamine]	2.6 ± 0.1 µM
COc1cc(OCCF)c(OC)cc1CC(C)N (stereo not drawn) [MFEM, 2,5-dimethoxy-4-(2-fluoroethoxy)amphetamine]	> 4.8 µM
C=CCOc1cc(OC)c(CC(C)N)cc1OC (stereo not drawn) [MALM, 4-allyloxy-2,5-dimethoxyamphetamine]	> 4.8 µM
COc1cc(OCC(F)F)c(OC)cc1CCN [2C-O-21.5, 4-(2,2-difluoroethoxy)-2,5-dimethoxyphenethylamine]	1.9 ± 0.1 µM
COc1cc(OCCF)c(OC)cc1CCN [2C-O-21, 2,5-dimethoxy-4-(2-fluoroethoxy)phenethylamine]	3.6 ± 0.5 µM

Molecular target: hDAT (Homo sapiens, UniProt Q01959)
Experiment: Radioligand binding, DAT ([3H]WIN35,428)
Parameters: expressed in transfected cells; host or cells: HEK 293 (membrane preparation)
Settings: not given

hDAT, sequence (Q01959 whole entry): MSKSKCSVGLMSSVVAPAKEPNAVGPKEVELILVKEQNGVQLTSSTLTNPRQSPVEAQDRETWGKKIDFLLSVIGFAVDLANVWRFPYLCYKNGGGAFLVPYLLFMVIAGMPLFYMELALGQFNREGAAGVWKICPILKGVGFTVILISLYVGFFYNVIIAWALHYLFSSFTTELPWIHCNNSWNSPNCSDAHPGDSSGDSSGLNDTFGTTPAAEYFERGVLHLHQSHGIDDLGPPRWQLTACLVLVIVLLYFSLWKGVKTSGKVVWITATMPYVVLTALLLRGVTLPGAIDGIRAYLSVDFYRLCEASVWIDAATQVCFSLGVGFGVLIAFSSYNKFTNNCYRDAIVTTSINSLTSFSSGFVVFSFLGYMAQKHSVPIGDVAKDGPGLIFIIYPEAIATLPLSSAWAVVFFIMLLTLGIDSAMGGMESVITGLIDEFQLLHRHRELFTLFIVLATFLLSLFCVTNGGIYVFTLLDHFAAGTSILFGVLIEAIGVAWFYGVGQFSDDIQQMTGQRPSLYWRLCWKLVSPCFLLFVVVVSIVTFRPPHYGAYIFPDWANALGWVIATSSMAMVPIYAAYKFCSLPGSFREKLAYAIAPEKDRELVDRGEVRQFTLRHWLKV

SMILES	Ki
C=CCOc1cc(OC)c(CCN)cc1OC [2C-O-16, 4-allyloxy-2,5-dimethoxyphenethylamine]	> 8.7 µM
C=C(C)COc1cc(OC)c(CCN)cc1OC [2C-O-3, 2,5-dimethoxy-4-methallyloxyphenethylamine]	> 8.7 µM
CCOc1cc(OC)c(CCN)cc1OC [2C-O-2, 2,5-dimethoxy-4-ethoxyphenethylamine]	> 8.7 µM
COc1cc(OCCF)c(OC)cc1CC(C)N (stereo not drawn) [MFEM, 2,5-dimethoxy-4-(2-fluoroethoxy)amphetamine]	> 8.7 µM
C=CCOc1cc(OC)c(CC(C)N)cc1OC (stereo not drawn) [MALM, 4-allyloxy-2,5-dimethoxyamphetamine]	> 8.7 µM
COc1cc(OCC(F)F)c(OC)cc1CCN [2C-O-21.5, 4-(2,2-difluoroethoxy)-2,5-dimethoxyphenethylamine]	> 8.7 µM
COc1cc(OCCF)c(OC)cc1CCN [2C-O-21, 2,5-dimethoxy-4-(2-fluoroethoxy)phenethylamine]	> 8.7 µM

Molecular target: T4, 5-HT2C receptor (Homo sapiens, UniProt P28335)
T4 construct: expressed in transfected cells; host or cells: HEK 293 (membrane preparation)
T4 sequence (P28335 33-458): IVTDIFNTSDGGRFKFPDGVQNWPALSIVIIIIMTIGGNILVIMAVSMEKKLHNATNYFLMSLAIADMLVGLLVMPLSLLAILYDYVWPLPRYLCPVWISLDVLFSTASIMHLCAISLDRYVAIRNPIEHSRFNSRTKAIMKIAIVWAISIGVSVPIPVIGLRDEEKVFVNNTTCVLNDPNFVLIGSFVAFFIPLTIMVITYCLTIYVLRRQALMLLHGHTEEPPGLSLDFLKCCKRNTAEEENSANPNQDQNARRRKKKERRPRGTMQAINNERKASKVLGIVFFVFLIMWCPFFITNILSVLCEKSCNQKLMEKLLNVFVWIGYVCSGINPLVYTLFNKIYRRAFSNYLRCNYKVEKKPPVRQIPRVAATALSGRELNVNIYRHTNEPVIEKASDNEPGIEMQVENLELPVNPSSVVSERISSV
Experiment: biochemical
Type: binding
Settings: not given

SMILES	Enhancement of 5-HT2C binding affinity compared to TMA-2 (19)
C=CCOc1cc(OC)c(CC(C)N)cc1OC (stereo not drawn) [MALM, 4-allyloxy-2,5-dimethoxyamphetamine]	6 fold

Same assay, conditions: [3H]mesulgerine; read-out: h5-HT2C Receptor binding Ki ± SD

SMILES	Ki
C=CCOc1cc(OC)c(CCN)cc1OC [2C-O-16, 4-allyloxy-2,5-dimethoxyphenethylamine]	0.47 ± 0.04 µM
C=C(C)COc1cc(OC)c(CCN)cc1OC [2C-O-3, 2,5-dimethoxy-4-methallyloxyphenethylamine]	0.15 ± 0.03 µM
CCOc1cc(OC)c(CCN)cc1OC [2C-O-2, 2,5-dimethoxy-4-ethoxyphenethylamine]	2.3 ± 1.2 µM
COc1cc(OCCF)c(OC)cc1CC(C)N (stereo not drawn) [MFEM, 2,5-dimethoxy-4-(2-fluoroethoxy)amphetamine]	11 ± 3 µM
C=CCOc1cc(OC)c(CC(C)N)cc1OC (stereo not drawn) [MALM, 4-allyloxy-2,5-dimethoxyamphetamine]	0.9 ± 0.22 µM
COc1cc(OCC(F)F)c(OC)cc1CCN [2C-O-21.5, 4-(2,2-difluoroethoxy)-2,5-dimethoxyphenethylamine]	4.2 ± 1.5 µM
COc1cc(OCCF)c(OC)cc1CCN [2C-O-21, 2,5-dimethoxy-4-(2-fluoroethoxy)phenethylamine]	3.6 ± 1.9 µM

Molecular target: T5, dopaminergic D2 receptor (Homo sapiens, UniProt P14416)
T5 construct: expressed in transfected cells; host or cells: HEK 293 (membrane preparation)
Experiment: Radioligand binding, dopaminergic D2 receptor ([3H]spiperone)
Settings: not given

T5 sequence (P14416 whole entry): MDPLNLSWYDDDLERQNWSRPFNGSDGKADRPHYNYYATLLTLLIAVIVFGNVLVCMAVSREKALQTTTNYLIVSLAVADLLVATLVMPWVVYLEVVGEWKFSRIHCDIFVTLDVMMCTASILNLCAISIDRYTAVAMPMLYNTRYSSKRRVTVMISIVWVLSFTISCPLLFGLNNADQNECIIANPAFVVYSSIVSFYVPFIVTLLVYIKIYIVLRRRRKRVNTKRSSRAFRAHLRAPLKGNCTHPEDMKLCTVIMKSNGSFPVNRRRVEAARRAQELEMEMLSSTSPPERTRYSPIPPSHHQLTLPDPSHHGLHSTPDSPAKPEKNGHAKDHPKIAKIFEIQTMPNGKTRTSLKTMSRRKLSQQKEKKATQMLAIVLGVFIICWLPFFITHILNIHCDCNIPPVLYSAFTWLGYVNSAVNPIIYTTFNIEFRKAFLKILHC

SMILES	Ki
C=CCOc1cc(OC)c(CCN)cc1OC [2C-O-16, 4-allyloxy-2,5-dimethoxyphenethylamine]	> 4.8 µM
C=C(C)COc1cc(OC)c(CCN)cc1OC [2C-O-3, 2,5-dimethoxy-4-methallyloxyphenethylamine]	> 4.8 µM
CCOc1cc(OC)c(CCN)cc1OC [2C-O-2, 2,5-dimethoxy-4-ethoxyphenethylamine]	> 4.8 µM
COc1cc(OCCF)c(OC)cc1CC(C)N (stereo not drawn) [MFEM, 2,5-dimethoxy-4-(2-fluoroethoxy)amphetamine]	> 4.8 µM
C=CCOc1cc(OC)c(CC(C)N)cc1OC (stereo not drawn) [MALM, 4-allyloxy-2,5-dimethoxyamphetamine]	> 4.4 µM
COc1cc(OCC(F)F)c(OC)cc1CCN [2C-O-21.5, 4-(2,2-difluoroethoxy)-2,5-dimethoxyphenethylamine]	> 4.8 µM
COc1cc(OCCF)c(OC)cc1CCN [2C-O-21, 2,5-dimethoxy-4-(2-fluoroethoxy)phenethylamine]	> 4.8 µM

Molecular target: hSERT (Homo sapiens, UniProt P31645)
Experiment: Radioligand binding, SERT ([3H]citalopram)
Parameters: expressed in transfected cells; host or cells: HEK 293 (membrane preparation)
Settings: not given

hSERT, sequence (P31645 whole entry): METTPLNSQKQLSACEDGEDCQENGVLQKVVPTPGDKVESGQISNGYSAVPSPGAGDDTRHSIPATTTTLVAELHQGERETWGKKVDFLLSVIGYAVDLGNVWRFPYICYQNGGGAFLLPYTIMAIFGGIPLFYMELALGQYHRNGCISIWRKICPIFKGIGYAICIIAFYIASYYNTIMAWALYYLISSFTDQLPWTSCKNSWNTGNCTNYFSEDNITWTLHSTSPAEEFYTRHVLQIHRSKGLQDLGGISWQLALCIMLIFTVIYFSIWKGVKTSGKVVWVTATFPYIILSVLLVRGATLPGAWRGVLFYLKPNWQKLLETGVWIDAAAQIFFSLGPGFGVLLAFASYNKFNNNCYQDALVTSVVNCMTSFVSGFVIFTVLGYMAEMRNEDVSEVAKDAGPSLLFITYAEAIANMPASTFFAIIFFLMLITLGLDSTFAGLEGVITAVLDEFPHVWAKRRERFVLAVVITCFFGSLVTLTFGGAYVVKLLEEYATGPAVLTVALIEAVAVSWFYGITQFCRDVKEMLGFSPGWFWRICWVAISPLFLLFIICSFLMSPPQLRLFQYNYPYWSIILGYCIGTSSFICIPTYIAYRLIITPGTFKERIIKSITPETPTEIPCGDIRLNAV

SMILES	Ki
C=CCOc1cc(OC)c(CCN)cc1OC [2C-O-16, 4-allyloxy-2,5-dimethoxyphenethylamine]	> 8.6 µM
C=C(C)COc1cc(OC)c(CCN)cc1OC [2C-O-3, 2,5-dimethoxy-4-methallyloxyphenethylamine]	> 8.6 µM
CCOc1cc(OC)c(CCN)cc1OC [2C-O-2, 2,5-dimethoxy-4-ethoxyphenethylamine]	> 8.6 µM
COc1cc(OCCF)c(OC)cc1CC(C)N (stereo not drawn) [MFEM, 2,5-dimethoxy-4-(2-fluoroethoxy)amphetamine]	> 8.6 µM
C=CCOc1cc(OC)c(CC(C)N)cc1OC (stereo not drawn) [MALM, 4-allyloxy-2,5-dimethoxyamphetamine]	> 8.6 µM
COc1cc(OCC(F)F)c(OC)cc1CCN [2C-O-21.5, 4-(2,2-difluoroethoxy)-2,5-dimethoxyphenethylamine]	> 8.6 µM
COc1cc(OCCF)c(OC)cc1CCN [2C-O-21, 2,5-dimethoxy-4-(2-fluoroethoxy)phenethylamine]	> 8.6 µM
